In patent publication US9409893B2, “Heteroaryl derivatives and uses thereof” (Jacobus Pharmaceutical Company, Inc., priority 2012, dated 2016):

Target: hERG potassium channel (Homo sapiens, UniProt Q12809)
Experiment: Whole cell patch clamp of cloned hERG potassium channels expressed in HEK293 cells
Assay type: cell-based
Settings: for IC50: patch clamp, read-out: IC50 for the inhibitory effect on hERG potassium current
Description: For in vitro testing, the functional hERG assay using conventional patch clamp electrophysiology is considered the gold standard for assessment of drug interactions with the hERG potassium channel (Yao et al., Br. J. Pharmacol. 2008, 154, 1446-1456). In this assay, hERG channels are expressed in a human embryonic kidney (HEK293) cell line that lacks endogenous IKr.
The objective of this study was to examine the in vitro effects of test articles on the hERG (human ether-à-go-go-related gene) potassium channel current (a surrogate for IKr, the rapidly activating delayed rectifier cardiac potassium current).
All chemicals used in solution preparation were purchased from Sigma-Aldrich (St. Louis, Mo.) unless otherwise noted and were of ACS reagent grade purity or higher. Stock solutions of the test article and the positive control were prepared in dimethyl sulfoxide (DMSO) and stored frozen. Test article and positive control concentrations were prepared fresh daily by diluting stock solutions into a HEPES-buffered physiological saline (HB-PS) solution (composition in mM): NaCl, 137; KCl, 4.0; CaCl2, 1.8; MgCl2, 1; HEPES, 10; Glucose, 10; pH adjusted to 7.4 with NaOH (prepared weekly and refrigerated until use).
HEK/hERG • Organism: Homo sapiens • Designation: 293 • Tissue: Kidney; Transformed with adenovirus 5 DNA; Transfected with human-ether-a-go-go cDNA • Morphology: Epithelial • Age Stage Embryo • Source Strain: ATCC, Manassas, Va. • Source Substrain ChanTest Corporation, Cleveland, Ohio
HEK293 cells were stably transfected with hERG cDNA. Stable transfectants were selected by coexpression with the G418-resistance gene incorporated into the expression plasmid. Selection pressure was maintained by including G418 in the culture medium. Cells were cultured in Dulbecco's Modified Eagle Medium/Nutrient Mixture F-12 (D-MEM/F-12) supplemented with 10% fetal bovine serum, 100 U/mL penicillin G sodium, 100 μg/mL streptomycin sulfate and 500 μg/mL G418.
All experiments were performed at room temperature. Each cell acted as its own control.
Experiments were performed as outlined in the section entitled Experimental Procedures. Concentrations were selected to evaluate the concentration-response relationship of each test article based on the initial results or the solubility limits in vehicle. Each concentration was tested in at least three cells (n≧3).
Cells were transferred to the recording chamber and superfused with vehicle control solution. Micropipette solution for whole cell patch clamp recordings was composed of (mM): potassium aspartate, 130; MgCl2, 5; EGTA, 5; ATP, 4; HEPES, 10; pH adjusted to 7.2 with KOH. Pipette solution was prepared in batches, aliquoted, stored frozen, and a fresh aliquot was thawed each day. Patch pipettes were made from glass capillary tubing using a P-97 micropipette puller (Sutter Instruments, Novato, Calif.). A commercial patch clamp amplifier was used for whole cell recordings. Before digitization, current records were low-pass filtered at one-fifth of the sampling frequency.
Onset and steady state inhibition of hERG current was measured using a pulse pattern with fixed amplitudes (conditioning prepulse: +20 mV for 2 s; test pulse: −50 mV for 2 s) repeated at 10 s intervals, from a holding potential of −80 mV. Peak tail current was measured during the 2 s step to −50 mV.
Each test article at 10 μM was applied to at least 3 cells (n≧3).
One or more test article concentrations were applied sequentially (without washout between test substance concentrations) in ascending order, to each cell (n≧3). A steady state was maintained for at least 30 s before applying test article or positive control. Peak current was measured until a new steady state was achieved.
Steady state was defined by the limiting constant rate of change with time (linear time dependence). The steady state before and after test article application was used to calculate the percentage of current inhibited at each concentration. […]

[1] = human, HEK293 cells stably expressing hERG, pH 7.4, HEK293/hERG, room temperature, read-out: Mean percentage of hERG current inhibited

Chain of hERG potassium channel (Q12809 whole entry): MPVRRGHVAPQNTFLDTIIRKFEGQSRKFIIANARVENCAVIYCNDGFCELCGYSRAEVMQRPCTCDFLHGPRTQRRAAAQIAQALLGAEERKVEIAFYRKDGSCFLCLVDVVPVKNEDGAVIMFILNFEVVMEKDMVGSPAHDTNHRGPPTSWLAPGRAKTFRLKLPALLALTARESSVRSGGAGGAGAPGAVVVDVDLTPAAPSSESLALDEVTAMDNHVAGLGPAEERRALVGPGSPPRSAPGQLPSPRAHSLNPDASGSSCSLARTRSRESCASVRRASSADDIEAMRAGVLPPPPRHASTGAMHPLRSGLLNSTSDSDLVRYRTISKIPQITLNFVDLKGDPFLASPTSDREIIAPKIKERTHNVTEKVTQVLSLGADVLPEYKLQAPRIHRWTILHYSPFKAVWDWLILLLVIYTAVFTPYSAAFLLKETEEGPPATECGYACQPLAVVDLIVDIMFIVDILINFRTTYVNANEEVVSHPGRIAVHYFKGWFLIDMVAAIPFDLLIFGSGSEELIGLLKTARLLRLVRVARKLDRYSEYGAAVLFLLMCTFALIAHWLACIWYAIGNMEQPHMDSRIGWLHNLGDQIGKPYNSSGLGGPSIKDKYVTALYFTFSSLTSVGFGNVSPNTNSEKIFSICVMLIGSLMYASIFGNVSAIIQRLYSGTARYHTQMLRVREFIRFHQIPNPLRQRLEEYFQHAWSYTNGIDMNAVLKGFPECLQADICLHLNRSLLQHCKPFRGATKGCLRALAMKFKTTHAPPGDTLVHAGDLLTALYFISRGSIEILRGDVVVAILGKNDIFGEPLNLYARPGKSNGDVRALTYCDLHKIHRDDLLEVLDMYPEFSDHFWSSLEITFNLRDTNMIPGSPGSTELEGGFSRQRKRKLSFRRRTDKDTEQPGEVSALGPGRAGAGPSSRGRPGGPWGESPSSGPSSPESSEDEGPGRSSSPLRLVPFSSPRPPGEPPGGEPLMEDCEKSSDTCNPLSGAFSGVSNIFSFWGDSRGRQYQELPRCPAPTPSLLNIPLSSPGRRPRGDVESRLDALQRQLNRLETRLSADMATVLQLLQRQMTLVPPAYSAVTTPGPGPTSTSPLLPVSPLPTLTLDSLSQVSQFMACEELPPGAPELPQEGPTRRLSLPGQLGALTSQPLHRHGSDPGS

Row | SMILES | IC50 (HEK293/hERG) [µM] | Hill coefficient of hERG inhibition (fit of concentration-response data) | inhibition at 3 µM [1] [%] | inhibition at 10 µM [1] [%] | inhibition at 30 µM [1] [%] | inhibition at 100 µM (human, HEK293 cells stably expressing hERG, pH 7.4, 100 μM, HEK293/hERG, room temperature, read-out: Mean percentage of hERG current inhibited) [%] | inhibition at 1 µM (human, HEK293 cells stably expressing hERG, pH 7.4, 1 μM, HEK293/hERG, room temperature, read-out: Mean percentage of hERG current inhibited) [%]
1 | CC(C)(C)NCc1cc(C(C)(C)C)cc(-c2ccc(C(F)(F)F)nc2)c1O.Cl [Example 1, 4-(tert-Butyl)-2-((tert-butylamino)methyl)-6-(6-(trifluoromethyl)pyridin-3-yl)phenol hydrochloride] | 9.8 | 1.4 | 18.4 | 48.5 | 84 | 98.2 | 
2 | CC(C)(C)NCc1cc(C(C)(C)C)cc(-c2cnc(C(F)(F)F)nc2)c1O.Cl [Example 33, 4-(tert-Butyl)-2-((tert-butylamino)methyl)-6-(2-(trifluoromethyl)pyrimidin-5-yl)phenol hydrochloride] | > 10 |  | 4.1 | 12.9 | 24.3 |  | 
3 | CC(C)(C)NCc1cc(C(C)(C)C)cc(-c2cnc(C(F)(F)F)c(F)c2)c1O.Cl [Example 34, 4-(tert-Butyl)-2-((tert-butylamino)methyl)-6-(5-fluoro-6-(trifluoromethyl)pyridin-3-yl)phenol hydrochloride] | > 10 |  | 11.3 | 15.9 |  |  | 2.6
